# Legend:
# recombinant ovine COX-1 = target: T1, recombinant ovine COX-1 (Ovis aries, UniProt P05979); assay: COX-1 peroxidase activity inhibition (TMPD, 96-well); type: biochemical
# T1 sequence (P05979 25-600): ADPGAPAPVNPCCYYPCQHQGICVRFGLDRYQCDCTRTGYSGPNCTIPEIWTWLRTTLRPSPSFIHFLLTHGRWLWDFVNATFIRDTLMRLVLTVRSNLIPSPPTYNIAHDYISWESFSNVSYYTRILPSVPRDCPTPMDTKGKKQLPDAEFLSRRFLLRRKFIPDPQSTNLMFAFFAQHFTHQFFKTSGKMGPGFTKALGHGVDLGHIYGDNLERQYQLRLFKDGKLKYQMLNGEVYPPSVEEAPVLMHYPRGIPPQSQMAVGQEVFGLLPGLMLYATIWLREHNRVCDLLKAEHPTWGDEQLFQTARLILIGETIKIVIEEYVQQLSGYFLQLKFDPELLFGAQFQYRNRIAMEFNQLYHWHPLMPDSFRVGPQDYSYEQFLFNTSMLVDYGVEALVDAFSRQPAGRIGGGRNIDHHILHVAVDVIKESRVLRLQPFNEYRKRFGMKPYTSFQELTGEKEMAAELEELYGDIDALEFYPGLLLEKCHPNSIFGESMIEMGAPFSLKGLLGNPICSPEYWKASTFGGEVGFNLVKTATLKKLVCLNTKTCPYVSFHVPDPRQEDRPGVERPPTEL
# Source text: (§1) In order to screen for compounds that inhibited the COX-1 and COX-2 activities, a high throughput, in vitro assay was developed that utilized the inhibition of the peroxidase activity of both enzymes. […] Briefly, the composition or compound being examined was titrated against a fixed amount of COX-1 and COX-2 enzymes. A cleavable, peroxide chromophore was included in the assay to visualize the peroxidase activity of each enzyme in presence of arachidonic acid as a cofactor. Typically, assays were performed in a 96-well format. Each inhibitor, taken from a 10 mg/mL stock solution in 100% DMSO, was tested in triplicate at room temperature using the following range of concentrations: 0, 0.1, 1, 5, 10, 20, 50, 100, and 500 μg/mL. […] The components were mixed for 10 seconds on a rotating platform, followed by the addition of 20 μL of 2 mM N,N,N′N′-tetramethyl-p-phenylenediamine dihydrochloride (TMPD) and 20 μL of 1.1 mM arachidonic acid to initiate the reaction. The plate was shaken for 10 seconds and then incubated 5 minutes before reading the absorbance at 570 nm. The inhibitor concentration vs. % inhibition was plotted and the IC50 determined by taking the half-maximal point along the isotherm and intersecting the concentration on the X-axis. The IC50 was then normalized to the number of enzyme units in the assay.
# recombinant ovine COX-2 = target: T2, recombinant ovine COX-2 (Ovis aries, UniProt P79208); assay: COX-2 peroxidase activity inhibition (TMPD, 96-well); type: biochemical; conditions: IC50 normalized to enzyme units
# T2 sequence (P79208 17-603): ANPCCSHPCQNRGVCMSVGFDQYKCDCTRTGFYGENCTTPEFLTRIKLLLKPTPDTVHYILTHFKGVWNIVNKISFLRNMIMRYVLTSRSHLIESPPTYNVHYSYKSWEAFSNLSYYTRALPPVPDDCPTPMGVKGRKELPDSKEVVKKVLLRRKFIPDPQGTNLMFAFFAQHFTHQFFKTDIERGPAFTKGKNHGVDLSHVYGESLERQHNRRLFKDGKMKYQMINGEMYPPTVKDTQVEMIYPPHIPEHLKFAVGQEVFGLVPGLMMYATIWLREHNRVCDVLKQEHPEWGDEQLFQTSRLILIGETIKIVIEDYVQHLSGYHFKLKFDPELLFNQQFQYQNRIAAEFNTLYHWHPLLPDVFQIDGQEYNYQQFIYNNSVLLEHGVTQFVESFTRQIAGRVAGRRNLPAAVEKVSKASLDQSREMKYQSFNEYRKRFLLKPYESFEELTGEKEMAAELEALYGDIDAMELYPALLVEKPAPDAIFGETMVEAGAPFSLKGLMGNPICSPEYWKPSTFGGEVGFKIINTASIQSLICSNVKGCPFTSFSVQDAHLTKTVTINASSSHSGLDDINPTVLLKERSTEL
# Source text: as §1
# [1] = tested on: prostaglandin endoperoxide synthase; conditions: Kalkbrenner et al. (1992); cited from earlier work
# [2] = tested on: cox-2 gene transcription in human colon cancer DLD-1 cells; conditions: Mutoh et al. (2000), read-out: IC50, suppression of cox-2 gene transcription; cited from earlier work
# [3] = Stability of catechin in solution; type: physicochemical
# Procedure: A total of 6 different conditions (not including control solution) were chosen for this stability investigation at 45° C. Aqueous K2HPO4 (0.5 M) or KH2PO4 (0.5 M) was utilized to make buffered solutions at pH 5 or 8, respectively. […] All seven solutions were stored in sealed bottles at 45° C.
# All eight solutions were stored in sealed bottles at 45° C.
# [4] = Oxygen Radical Absorption Capacity (ORAC)
# [5] = literature studies of bioavailability; cited from earlier work
# [6] = tested on: newly synthesized LTB4 (5-LOX pathway) in HT-29 cells; assay: LTB4 competitive ELISA in HT-29 cells; type: cell-based; conditions: Homo sapiens, 3 μg/mL, 48 hrs
# Procedure: A competitive ELISA for Leukotriene B4 (LTB4; Neogen, Inc., Cat#406110) was used to assess the effect of this UP676 formulation on newly synthesized levels of LTB4 present in each cell line as a measure UP676's inhibitory effect on the 5-LOX pathway. The assay was performed in duplicate by adding 160,000 to 180,000 cells per well in 6-well plates. […] Each treated cell line was then harvested by centrifugation and disrupted by gentle dounce homogenization lysis in physiological buffers.
# COX-1 and COX-2 enzymes = conditions: cited from earlier work
smiles,measurement,setting,value
O=C(O)[C@H]1O[C@@H](Oc2cc3oc(-c4ccccc4)cc(=O)c3c(O)c2O)[C@H](O)[C@@H](O)[C@@H]1O [Baicalin],IC50 for COX-1,"recombinant ovine COX-1; peroxidase activity, IC50 normalized to enzyme units",0.44 μg/mL/unit of enzyme
same,IC50 for COX-2,recombinant ovine COX-2,0.28 μg/mL/unit
Oc1cc(O)c2c(c1)OC(c1ccc(O)c(O)c1)C(O)C2 (stereo not drawn) [Catechin],IC50,[1],40 µM
same,selectivity against the COX-1 enzyme,"recombinant ovine COX-1; catechin in the UP676 formulation, COX-1 over COX-2",2.3 fold
same,IC50,[2],415 µM
same,"stability of catechin in solution, basic conditions or metal ions",[3]; basic conditions or metal ions such as Fe3+,not under basic conditions or when exposed to metal ions
same,"stability of catechin in solution, neutral conditions","[3]; neutral conditions, 4° C. and 40° C.",stable
same,"stability of catechin in solution, weakly basic",[3]; pH=7.5,decomposes
same,Oxygen Radical Absorption Capacity (ORAC),[4],"20,000"
same,half life,[5],2 h
"CC(C)Cc1ccc(C(C)C(=O)O)cc1 (stereo not drawn) [Ibuprofen, ibuprofen]",inhibition at 3 µg/mL,[6],20%
CC(=O)Oc1ccccc1C(=O)O [aspirin],times more potent against COX-1 than COX-2,COX-1 and COX-2 enzymes,more than 150 times

# — patent US8945518B2, “Formulation of dual eicosanoid system and cytokine system inhibitors for use in the prevention and treatment of oral diseases and conditions” (Unigen, Inc., priority 2002, dated 2015)
